Laboratory results from US12428406B2 (PMV Pharmaceuticals, Inc., priority 2019, dated 2025).

Molecular target: T1, p53 Y220C (Homo sapiens, UniProt P04637, Y220C)
T1 construct: The recombinant protein was a truncation mutant containing only amino acids 94-312 of p53; made in house; host or cells: E. coli
Assay: In vitro DNA binding activity assay (HTRF / TR-FRET): stabilization of p53 Y220C and increase of its DNA binding activity
Format: biochemical
Conditions: recombinant His-tagged p53 Y220C DNA binding domain (aa 94-312), biotin-labeled consensus DNA, incubated at 27° C. or 29° C. for 60 min
How it was run: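 E. coli His-p53 Y220C + biotin consensus DNA; anti-His-APC/SA-Eu TR-FRET. SC150 vs no-compound.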

T1 sequence (P04637 94-312, change not shown): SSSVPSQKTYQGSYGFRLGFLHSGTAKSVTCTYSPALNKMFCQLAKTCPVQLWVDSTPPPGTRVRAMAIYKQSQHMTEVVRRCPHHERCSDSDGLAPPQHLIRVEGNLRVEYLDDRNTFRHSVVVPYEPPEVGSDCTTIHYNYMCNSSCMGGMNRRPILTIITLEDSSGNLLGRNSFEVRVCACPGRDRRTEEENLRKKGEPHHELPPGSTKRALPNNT

| Structure (SMILES) | SC150 (concentration of the compound required to increase the DNA binding activity by 50%) |
| --- | --- |
| CNC(=O)c1ccc(NCC#Cc2cc3c(NC4CCN(C[C@@H](CO)OC)CC4)cccc3n2CC(F)(F)F)c(OC)c1 [Compound 650A, 4-({3-[4-({1-[(2S)-3-hydroxy-2-methoxypropyl]piperidin-4-yl}amino)-1-(2,2,2-trifluoroethyl)-1H-indol-2-yl]prop-2-yn-1-yl}amino)-3-methoxy-N-methylbenzamide] | + (+ = 0 μM ≤ SC150 < 0.05 μM) |
| CNS(=O)(=O)c1ccc(NCC#Cc2cc3c(N[C@H]4CC[C@@H](N(C)C)CC4)cccc3n2CC(F)(F)F)c(OC)c1 [Compound 72A, 3-methoxy-N-methyl-4-{[3-(4-{[(1S,4S)-4-(dimethylamino)cyclohexyl]amino}-1-(2,2,2-trifluoroethyl)-1H-indol-2-yl)prop-2-yn-1-yl]amino}benzene-1-sulfonamide] | + (+ = 0 μM ≤ SC150 < 0.05 μM) |
| COc1cc(S(N)(=O)=O)ccc1NCC#Cc1cc2c(N[C@H]3CC[C@@H](N4CC5(CCOCC5)C4)CC3)cccc2n1CC(F)(F)F [Compound 298A, 3-methoxy-4-{[3-(4-{[(1S,4S)-4-{7-oxa-2-azaspiro[3.5]nonan-2-yl}cyclohexyl]amino}-1-(2,2,2-trifluoroethyl)-1H-indol-2-yl)prop-2-yn-1-yl]amino}benzene-1-sulfonamide] | + (+ = 0 μM ≤ SC150 < 0.05 μM) |
| CNC(=O)c1ccc(NCC#Cc2cc3c(N[C@H]4CC[C@@H](N5CC6(COC6)C5)CC4)cccc3n2CC(F)(F)F)c(OCC#N)c1 [Compound 243A, 3-(cyanomethoxy)-N-methyl-4-{[3-(4-{[(1S,4S)-4-{2-oxa-6-azaspiro[3.3]heptan-6-yl}cyclohexyl]amino}-1-(2,2,2-trifluoroethyl)-1H-indol-2-yl)prop-2-yn-1-yl]amino}benzamide] | + (+ = 0 μM ≤ SC150 < 0.05 μM) |
| N#CCOc1cc(S(N)(=O)=O)ccc1NCC#Cc1cc2c(NC3CCC(N4CC5(COC5)C4)CC3)cccc2n1CC(F)(F)F [Compound 259A, 3-(cyanomethoxy)-4-{[3-(4-{[(1R,4R)-4-{2-oxa-6-azaspiro[3.3]heptan-6-yl}cyclo-hexyl]amino}-1-(2,2,2-trifluoroethyl)-1H-indol-2-yl)prop-2-yn-1-yl]amino}benzene-1-sulfonamide] | + (+ = 0 μM ≤ SC150 < 0.05 μM) |
| CS(=O)(=O)c1ccc(NCC#Cc2cc3c(NC4CCNCC4)cccc3n2CC(F)(F)F)c(OCC#N)c1 [Compound 461A, 2-{5-methanesulfonyl-2-[(3-{4-[(piperidin-4-yl)amino]-1-(2,2,2-trifluoroethyl)-1H-indol-2-yl}prop-2-yn-1-yl)amino]phenoxy}acetonitrile] | + (+ = 0 μM ≤ SC150 < 0.05 μM) |
| COc1cc(S(=O)(=O)NC2CCOCC2)ccc1NCC#Cc1cc2c(N[C@H]3CC[C@@H](N(C)C)CC3)cccc2n1CC(F)(F)F [Compound 51A, 3-methoxy-N-(oxan-4-yl)-4-{[3-(4-{[(1S,4S)-4-(dimethylamino)cyclohexyl]amino}-1-(2,2,2-trifluoroethyl)-1H-indol-2-yl)prop-2-yn-1-yl]amino}benzene-1-sulfonamide] | + (+ = 0 μM ≤ SC150 < 0.05 μM) |
| COc1cc(S(C)(=O)=O)ccc1NCC#Cc1cc2c(NC3CCOCC3)cc(F)cc2n1CC(F)(F)F [Compound 997A, 6-fluoro-2-{3-[(4-methanesulfonyl-2-methoxyphenyl)amino]prop-1-yn-1-yl}-N-(oxan-4-yl)-1-(2,2,2-trifluoroethyl)-1H-indol-4-amine] | + (+ = 0 μM ≤ SC150 < 0.05 μM) |
| CN1CC[C@@H](Nc2cccc3c2cc(C#CCNC(=O)C2CC2)n3CC(F)(F)F)[C@@H](F)C1 [Compound 951A, N-[3-(4-{[(3S,4R)-3-fluoro-1-methylpiperidin-4-yl]amino}-1-(2,2,2-trifluoroethyl)-1H-indol-2-yl)prop-2-yn-1-yl]cyclopropanecarboxamide] | + (+ = 0 μM ≤ SC150 < 0.05 μM) |
| COc1cc(S(C)(=O)=O)ccc1NCC#Cc1cc2c(N[C@H]3CC[C@@H](N4CC5(COC5)C4)CC3)cccc2n1CC(F)(F)F [Compound 203A, 2-{3-[(4-methanesulfonyl-2-methoxyphenyl)amino]prop-1-yn-1-yl}-N-[(1S,4S)-4-{2-oxa-6-azaspiro[3.3]heptan-6-yl}cyclohexyl]-1-(2,2,2-trifluoroethyl)-1H-indol-4-amine] | + (+ = 0 μM ≤ SC150 < 0.05 μM) |
| CS(=O)(=O)c1ccc(NCC#Cc2cc3c(N[C@H]4CC[C@H](N5CC6(COC6)C5)CC4)cccc3n2CC(F)(F)F)c(OCCF)c1 [Compound 210A, N-((1R,4R)-4-(2-oxa-6-azaspiro[3.3]heptan-6-yl)cyclohexyl)-2-(3-((2-(2-fluoroethoxy)-4-(methylsulfonyl)phenyl)amino)prop-1-yn-1-yl)-1-(2,2,2-trifluoroethyl)-1H-indol-4-amine] | + (+ = 0 μM ≤ SC150 < 0.05 μM) |
| CNC(=O)c1cc(OC)c(NCC#Cc2cc3c(NC4CCN(C)CC4)cccc3n2CC(F)(F)F)cc1F [Compound 516A, 2-fluoro-5-methoxy-N-methyl-4-[(3-{4-[(1-methylpiperidin-4-yl)amino]-1-(2,2,2-trifluoroethyl)-1H-indol-2-yl}prop-2-yn-1-yl)amino]benzamide] | + (+ = 0 μM ≤ SC150 < 0.05 μM) |
| COc1cc(S(C)(=O)=O)ccc1NCC#Cc1cc2c(N[C@H]3CC[C@H](N4CCC5(CCO5)CC4)CC3)cccc2n1CC(F)(F)F [Compound 383A, 2-{3-[(4-methane-sulfonyl-2-methoxy-phenyl)amino]prop-1-yn-1-yl}-N-[(1R,4R)-4-{1-oxa-7-azaspiro[3.5]nonan-7-yl}cyclohexyl]-1-(2,2,2-trifluoroethyl)-1H-indol-4-amine] | + (+ = 0 μM ≤ SC150 < 0.05 μM) |
| COc1cc(S(C)(=O)=O)ccc1NCC#Cc1cc2c(N[C@H]3CCN(CC(N)=O)C[C@H]3F)cccc2n1CC(F)(F)F (racemic) [Compound 811A, rac-2-[(3R,4S)-3-fluoro-4-[(2-{3-[(4-methanesulfonyl-2-methoxyphenyl)amino]prop-1-yn-1-yl}-1-(2,2,2-trifluoroethyl)-1H-indol-4-yl)amino]piperidin-1-yl]acetamide] | + (+ = 0 μM ≤ SC150 < 0.05 μM) |
| COc1cc(S(C)(=O)=O)ccc1NCC#Cc1cc2c(N[C@H]3CCN(C)C[C@H]3F)cccc2n1CC(F)(F)F (stereo in doubt) [Compound 773A, N-[(3R,4S)-3-fluoro-1-methylpiperidin-4-yl]-2-{3-[(4-methanesulfonyl-2-methoxyphenyl)amino]prop-1-yn-1-yl}-1-(2,2,2-trifluoroethyl)-1H-indol-4-amine] | + (+ = 0 μM ≤ SC150 < 0.05 μM) |
| CCN1CCC(Nc2cccc3c2cc(C#CCNc2ccc(S(C)(=O)=O)cc2OCF)n3CC(F)(F)F)CC1 [Compound 534A, N-(1-ethylpiperidin-4-yl)-2-(3-{[2-(fluoromethoxy)-4-methanesulfonylphenyl]amino}prop-1-yn-1-yl)-1-(2,2,2-trifluoroethyl)-1H-indol-4-amine] | + (+ = 0 μM ≤ SC150 < 0.05 μM) |
| CCOc1cc(S(C)(=O)=O)ccc1NCC#Cc1cc2c(N[C@H]3CC[C@H](N4CC5CC(C4)O5)CC3)cccc2n1CC(F)(F)F [Compound 404A, 2-{3-[(2-ethoxy-4-methanesulfonyl-phenyl)amino]prop-1-yn-1-yl}-N-[(1R,4R)-4-{6-oxa-3-azabicyclo[3.1.1]heptan-3-yl}cyclohexyl]-1-(2,2,2-trifluoroethyl)-1H-indol-4-amine] | + (+ = 0 μM ≤ SC150 < 0.05 μM) |
| COc1cc(S(C)(=O)=O)ccc1NCC#Cc1cc2c(NC3CCN(CC(C)OC(=O)C(C)C)CC3)cccc2n1CC(F)(F)F (racemic) [Compound 591A, 1-{4-[(2-{3-[(4-methanesulfonyl-2-methoxyphenyl)amino]prop-1-yn-1-yl}-1-(2,2,2-trifluoroethyl)-1H-indol-4-yl)amino]piperidin-1-yl}propan-2-yl 2-methylpropanoate] | + (+ = 0 μM ≤ SC150 < 0.05 μM) |
| CCN1CC[C@@H](Nc2cccc3c2cc(C#CCNc2ccc(S(C)(=O)=O)cc2OC)n3CC(F)(F)F)[C@@H](F)C1 [Compound 812A] | + (+ = 0 μM ≤ SC150 < 0.05 μM) |
| CN(C)[C@H]1CC[C@H](Nc2cccc3c2cc(C#CCn2c(=O)oc4cc(S(C)(=O)=O)ccc42)n3CC(F)(F)F)CC1 [Compound 125A, 3-(3-(4-(((1R,4R)-4-(dimethylamino)cyclohexyl)amino)-1-(2,2,2-trifluoroethyl)-1H-indol-2-yl)prop-2-yn-1-yl)-6-(methylsulfonyl)benzo[d]oxazol-2 (3H)-one] | ++++ (++++ = 0.2 μM ≤ SC150 < 1 μM) |
| CN(C)[C@H]1CC[C@@H](Nc2cccc3c2cc(C#CCNc2ccc(S(C)(=O)=O)cc2O)n3CC(F)(F)F)CC1 [Compound 79A, 5-methanesulfonyl-2-{[3-(4-{[(1R,4R)-4-(dimethylamino)cyclohexyl]amino}-1-(2,2,2-trifluoroethyl)-1H-indol-2-yl)prop-2-yn-1-yl]amino}phenol] | + (+ = 0 μM ≤ SC150 < 0.05 μM) |
| COc1cc(C(N)=O)ccc1NCC#Cc1cc2c(N[C@H]3CC[C@H](N4CCOCC4)CC3)cccc2n1CC(F)(F)F [Compound 170A, 3-methoxy-4-{[3-(4-{[(1R,4R)-4-(morpholin-4-yl)cyclohexyl]amino}-1-(2,2,2-trifluoroethyl)-1H-indol-2-yl)prop-2-yn-1-yl]amino}benzamide] | + (+ = 0 μM ≤ SC150 < 0.05 μM) |
